The target of assay [1] is human KDR protein in HEK-293 cells (Homo sapiens (Human), UniProt P35968). Kind of assay: KDR Cell Assay (phospho-KDR in HEK-293 cells expressing inducible KDR). Format: cell-based. Particulars: pKDR Cell HEK 10% FBS IC50, HEK-293 cells expressing inducible KDR, VEGF stimulated. The method in brief: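 HEK-293 cells with inducible human KDR were treated with compound for 1 h in DMEM (0.25% DMSO final), then lysed. Phospho-KDR was quantified by Meso Scale immunoassay, expressed as percent of control, and IC50 taken where a 4-parameter logistic fit crossed 50 POC.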

Assay [2] concerns the target N-terminal GST tagged recombinant human RET cytoplasmic domain (aa 658-end), wild type RET kinase (Homo sapiens (Human), UniProt P07949). Kind of assay: RET Enzyme Assay (HTRF KinEASE-TK), wild type RET. The assay is classed as biochemical.
For assay [3], the target named is Kif5b-RET fusion protein in HEK-293 cells (Homo sapiens, UniProt P07949). The assay is described as follows: cell-based.
Where [4] appears, read: HEK-293 cells expressing Kif5b-RET, phospho-RET(Tyr1062), read-out: KIF5B-RET pTYR1062 Cell IC50.

Where a name gives a salt, the structure may show the parent alone. Read-outs that look alike come from different tables or passages of the source.

human KDR protein in HEK-293 cells, sequence (P35968 20-1356): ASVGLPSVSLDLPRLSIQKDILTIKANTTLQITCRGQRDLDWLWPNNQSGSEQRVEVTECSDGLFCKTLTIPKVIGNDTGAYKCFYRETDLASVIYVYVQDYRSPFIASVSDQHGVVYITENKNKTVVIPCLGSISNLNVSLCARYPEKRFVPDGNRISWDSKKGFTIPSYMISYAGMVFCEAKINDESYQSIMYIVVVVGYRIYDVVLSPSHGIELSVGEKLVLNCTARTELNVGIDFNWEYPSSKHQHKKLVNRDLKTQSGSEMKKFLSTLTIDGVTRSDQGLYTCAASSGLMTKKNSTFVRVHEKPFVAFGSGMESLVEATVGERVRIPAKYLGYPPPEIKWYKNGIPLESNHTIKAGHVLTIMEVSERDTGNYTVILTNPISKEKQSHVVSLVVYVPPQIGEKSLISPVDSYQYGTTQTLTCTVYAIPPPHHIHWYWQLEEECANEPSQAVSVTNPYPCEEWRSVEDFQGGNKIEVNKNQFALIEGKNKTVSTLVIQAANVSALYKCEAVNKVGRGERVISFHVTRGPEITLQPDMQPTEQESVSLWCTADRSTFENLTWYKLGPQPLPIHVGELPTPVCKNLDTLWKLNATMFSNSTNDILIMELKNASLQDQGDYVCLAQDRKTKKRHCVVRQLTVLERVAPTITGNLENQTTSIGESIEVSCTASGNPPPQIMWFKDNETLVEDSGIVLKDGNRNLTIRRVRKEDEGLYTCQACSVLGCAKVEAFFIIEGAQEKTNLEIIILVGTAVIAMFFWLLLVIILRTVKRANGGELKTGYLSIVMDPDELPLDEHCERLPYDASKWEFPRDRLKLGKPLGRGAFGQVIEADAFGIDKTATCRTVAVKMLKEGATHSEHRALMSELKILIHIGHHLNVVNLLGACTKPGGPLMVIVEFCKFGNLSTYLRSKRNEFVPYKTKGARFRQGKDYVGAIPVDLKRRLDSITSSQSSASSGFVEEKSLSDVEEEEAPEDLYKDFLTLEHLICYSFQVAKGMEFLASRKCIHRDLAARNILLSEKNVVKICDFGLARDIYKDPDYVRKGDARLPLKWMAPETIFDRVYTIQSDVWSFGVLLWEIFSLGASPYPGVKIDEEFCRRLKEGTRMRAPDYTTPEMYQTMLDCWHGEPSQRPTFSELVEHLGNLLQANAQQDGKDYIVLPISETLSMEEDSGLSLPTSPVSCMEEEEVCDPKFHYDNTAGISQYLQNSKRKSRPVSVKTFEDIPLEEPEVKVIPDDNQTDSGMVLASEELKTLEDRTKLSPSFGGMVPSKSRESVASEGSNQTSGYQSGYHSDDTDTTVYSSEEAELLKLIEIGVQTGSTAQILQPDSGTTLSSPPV
Kif5b-RET fusion protein in HEK-293 cells, sequence (P07949 29-1114 limits assumed): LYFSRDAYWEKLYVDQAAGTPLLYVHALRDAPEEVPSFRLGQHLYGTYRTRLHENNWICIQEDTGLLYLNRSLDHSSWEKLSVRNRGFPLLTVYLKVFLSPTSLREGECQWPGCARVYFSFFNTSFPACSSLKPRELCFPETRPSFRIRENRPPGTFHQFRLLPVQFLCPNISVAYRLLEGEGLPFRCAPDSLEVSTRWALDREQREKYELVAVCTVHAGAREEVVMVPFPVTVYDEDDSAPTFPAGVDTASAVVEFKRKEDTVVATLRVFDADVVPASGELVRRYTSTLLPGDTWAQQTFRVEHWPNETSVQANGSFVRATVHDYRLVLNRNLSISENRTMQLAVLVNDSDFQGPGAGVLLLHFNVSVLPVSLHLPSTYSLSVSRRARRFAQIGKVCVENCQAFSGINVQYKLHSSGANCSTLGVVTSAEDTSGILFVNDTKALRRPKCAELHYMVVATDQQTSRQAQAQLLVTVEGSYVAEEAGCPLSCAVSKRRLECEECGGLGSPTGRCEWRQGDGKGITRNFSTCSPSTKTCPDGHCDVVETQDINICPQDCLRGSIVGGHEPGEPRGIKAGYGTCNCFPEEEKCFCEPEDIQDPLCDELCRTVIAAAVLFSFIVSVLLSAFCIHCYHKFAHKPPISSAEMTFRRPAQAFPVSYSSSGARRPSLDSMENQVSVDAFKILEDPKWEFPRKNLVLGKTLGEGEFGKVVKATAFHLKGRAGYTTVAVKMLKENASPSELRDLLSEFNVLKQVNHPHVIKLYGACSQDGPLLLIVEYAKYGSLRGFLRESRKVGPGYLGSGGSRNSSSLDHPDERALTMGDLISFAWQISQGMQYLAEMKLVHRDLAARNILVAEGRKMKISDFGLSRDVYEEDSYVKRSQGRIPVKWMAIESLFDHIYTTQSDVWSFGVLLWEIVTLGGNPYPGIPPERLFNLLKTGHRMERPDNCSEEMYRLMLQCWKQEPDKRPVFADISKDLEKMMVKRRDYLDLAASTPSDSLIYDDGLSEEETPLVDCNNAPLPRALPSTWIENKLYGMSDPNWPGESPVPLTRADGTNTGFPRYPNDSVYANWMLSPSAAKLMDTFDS
N-terminal GST tagged recombinant human RET cytoplasmic domain (aa 658-end), wild type RET kinase, sequence (P07949 658-1114): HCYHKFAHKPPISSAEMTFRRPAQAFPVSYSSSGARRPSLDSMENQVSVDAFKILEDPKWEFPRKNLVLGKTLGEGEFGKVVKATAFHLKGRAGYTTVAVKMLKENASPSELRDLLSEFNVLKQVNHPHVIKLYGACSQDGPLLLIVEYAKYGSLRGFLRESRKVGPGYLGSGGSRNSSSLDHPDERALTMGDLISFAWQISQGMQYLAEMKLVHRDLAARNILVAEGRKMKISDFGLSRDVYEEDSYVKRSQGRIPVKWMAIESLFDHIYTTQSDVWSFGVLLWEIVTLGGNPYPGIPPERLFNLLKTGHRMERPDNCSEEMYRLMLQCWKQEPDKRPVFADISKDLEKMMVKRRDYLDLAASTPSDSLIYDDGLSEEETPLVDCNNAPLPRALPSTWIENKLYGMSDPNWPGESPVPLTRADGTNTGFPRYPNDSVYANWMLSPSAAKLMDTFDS

For the molecule `Cn1cc(-c2cc(-c3ccc(N4CCN(C(=O)CC(C)(C)C)CC4)nc3)c3c(C#N)cnn3c2)cn1` [Example 65, 4-(6-(4-(3,3-dimethylbutanoyl)piperazin-1-yl)pyridin-3-yl)-6-(1-methyl-1H-pyrazol-4-yl)pyrazolo[1,5-a]pyridine-3-carbonitrile], the IC50 stood at 902 nM in assay [1] (10% FBS); 8.2 nM in assay [2] (wild type RET, 1 mM ATP); 39.3 nM in assay [3] (setting [4]).

For the molecule `Cn1cc(-c2cc(-c3ccc(N4CCNCC4)nc3)c3c(C#N)cnn3c2)cn1` [Example 2, 6-(1-methyl-1H-pyrazol-4-yl)-4-(6-(piperazin-1-yl)pyridin-3-yl)pyrazolo[1,5-a]pyridine-3-carbonitrile dihydrochloride], the figures for the concentration for half-maximal inhibition (IC50) in assay [1] (10% FBS), in assay [2] and in assay [3] (setting [4]) were 1080 nM, 19.6 nM and 111 nM, respectively.

With `COC(=O)C1(C)CCN(c2ccc(-c3cc(-c4cnn(C)c4)cn4ncc(C#N)c34)cn2)CC1` [Example 254, Methyl 1-(5-(3-cyano-6-(1-methyl-1H-pyrazol-4-yl)pyrazolo[1,5-a]pyridin-4-yl)pyridin-2-yl)-4-methylpiperidine-4-carboxylate], the IC50 in assay [1] (10% FBS) was found to be 446 nM; in assay [2] (wild type RET, 1 mM ATP), 9.2 nM; in assay [3] (setting [4]) it was 12.3 nM.

With `COCC(C)(C)C(=O)N1CCN(c2ccc(-c3cc(-c4cnn(C)c4)cn4ncc(C#N)c34)cn2)CC1` [Example 352, 4-(6-(4-(3-methoxy-2,2-dimethylpropanoyl)piperazin-1-yl)pyridin-3-yl)-6-(1-methyl-1H-pyrazol-4-yl)pyrazolo[1,5-a]pyridine-3-carbonitrile], the IC50 in assay [1] (10% FBS) was determined as 2200 nM; in assay [2] (wild type RET, 1 mM ATP) it was 13.9 nM; in assay [3] (setting [4]), 13.7 nM.

On to `COc1ccccc1CN1CCN(c2ccc(-c3cc(-c4cnn(C)c4)cn4ncc(C#N)c34)cn2)CC1` [Example 451, 4-(6-(4-(2-methoxybenzyl)piperazin-1-yl)pyridin-3-yl)-6-(1-methyl-1H-pyrazol-4-yl)pyrazolo[1,5-a]pyridine-3-carbonitrile], for which the IC50 in assay [1] was 593 nM; in assay [2] (wild type RET, 1 mM ATP) it was 4.9 nM; in assay [3], 4.9 nM.

For `CC(C)C[C@H](O)C(=O)N1CCN(c2ccc(-c3cc(-c4cnn(C)c4)cn4ncc(C#N)c34)cn2)CC1` [Example 56, (S)-4-(6-(4-(2-hydroxy-4-methylpentanoyl)piperazin-1-yl)pyridin-3-yl)-6-(1-methyl-1H-pyrazol-4-yl)pyrazolo[1,5-a]pyridine-3-carbonitrile], the IC50 in assay [1] (10% FBS) was found to be 896 nM; in assay [2] (wild type RET, 1 mM ATP), 16 nM; in assay [3] (setting [4]) it was 35.5 nM.

As for `Cn1cc(-c2cc(-c3ccc(N4CCN(CCNC(=O)OC(C)(C)C)CC4)nc3)c3c(C#N)cnn3c2)cn1` [Example 506, tert-butyl (2-(4-(5-(3-cyano-6-(1-methyl-1H-pyrazol-4-yl)pyrazolo[1,5-a]pyridin-4-yl)pyridin-2-yl)piperazin-1-yl)ethyl)carbamate], the IC50 in assay [1] came to 212 nM; in assay [2] (wild type RET, 1 mM ATP), 31.3 nM; in assay [3], 6.5 nM.

For the molecule `CC(C)NC(=O)CN1CCN(c2ccc(-c3cc(-c4cnn(C)c4)cn4ncc(C#N)c34)cn2)CC1` [Example 144, 2-(4-(5-(3-cyano-6-(1-methyl-1H-pyrazol-4-yl)pyrazolo[1,5-a]pyridin-4-yl)pyridin-2-yl)piperazin-1-yl)-N-isopropylacetamide 2,2,2-trifluoroacetate], the results for the IC50 in assay [1] (10% FBS), in assay [2] and in assay [3] (setting [4]) were 1680 nM, 25.2 nM and 58.9 nM, respectively.

In the case of `CC(C)NC(=O)C1CCN(c2ccc(-c3cc(-c4cnn(C)c4)cn4ncc(C#N)c34)cn2)CC1` [Example 246, 1-(5-(3-cyano-6-(1-methyl-1H-pyrazol-4-yl)pyrazolo[1,5-a]pyridin-4-yl)pyridin-2-yl)-N-isopropylpiperidine-4-carboxamide], the IC50 in assay [1] (10% FBS) is 949 nM; in assay [2] (wild type RET, 1 mM ATP) it was 12 nM; in assay [3] (setting [4]), 13.6 nM.

As for `Cn1cc(-c2cc(-c3ccc(N4CCC(S(C)(=O)=O)CC4)nc3)c3c(C#N)cnn3c2)cn1` [Example 567, 6-(1-methyl-1H-pyrazol-4-yl)-4-(6-(4-(methylsulfonyl)piperidin-1-yl)pyridin-3-yl)pyrazolo[1,5-a]pyridine-3-carbonitrile], the IC50 in assay [1] is 198 nM; in assay [2] (wild type RET, 1 mM ATP), 3.1 nM; in assay [3] it was 4.9 nM.

In the case of `CC(C)OC(=O)NC1CCN(c2ccc(-c3cc(-c4cnn(C)c4)cn4ncc(C#N)c34)cn2)CC1` [Example 188, Isopropyl (1-(5-(3-cyano-6-(1-methyl-1H-pyrazol-4-yl)pyrazolo[1,5-a]pyridin-4-yl)pyridin-2-yl)piperidin-4-yl)carbamate], the half-inhibitory concentration (IC50) was 614 nM in assay [1] (10% FBS); 16.8 nM in assay [2] (wild type RET, 1 mM ATP); 9.7 nM in assay [3] (setting [4]).

Turning to `CC(C)C(=O)NC1(C)CCN(c2ccc(-c3cc(-c4cnn(C)c4)cn4ncc(C#N)c34)cn2)CC1` [Example 203], the IC50 in assay [1] (10% FBS) came out at 560 nM; in assay [2] (wild type RET, 1 mM ATP), 5.8 nM; in assay [3] (setting [4]), 5.2 nM.

Regarding `CC(C)NC(=O)N1CCN(c2ccc(-c3cc(-c4cnn(C)c4)cn4ncc(C#N)c34)cn2)CC1` [Example 126, 4-(5-(3-cyano-6-(1-methyl-1H-pyrazol-4-yl)pyrazolo[1,5-a]pyridin-4-yl)pyridin-2-yl)-N-isopropylpiperazine-1-carboxamide], the IC50 in assay [1] (10% FBS) is 347 nM; in assay [2] (wild type RET, 1 mM ATP) it was 11.7 nM; in assay [3] (setting [4]) it was 10.8 nM.

Regarding `CC(C)CC(=O)N1CCN(c2ccc(-c3cc(-c4cnn(C(F)F)c4)cn4ncc(C#N)c34)cn2)CC1` [Example 267, 6-(1-(difluoromethyl)-1H-pyrazol-4-yl)-4-(6-(4-(3-methylbutanoyl)piperazin-1-yl)pyridin-3-yl)pyrazolo[1,5-a]pyridine-3-carbonitrile], the IC50 was found to be 2760 nM in assay [1] (10% FBS); 11 nM in assay [2] (wild type RET, 1 mM ATP); 13.6 nM in assay [3] (setting [4]).

For `CC(C)n1cc(-c2cc(-c3ccc(N4CCN(Cc5ccccc5)CC4)nc3)c3c(C#N)cnn3c2)cn1` [Example 611, 4-(6-(4-benzylpiperazin-1-yl)pyridin-3-yl)-6-(1-isopropyl-1H-pyrazol-4-yl)pyrazolo[1,5-a]pyridine-3-carbonitrile], the IC50 came to 298 nM in assay [1]; 11.9 nM in assay [2] (wild type RET, 1 mM ATP); 2.5 nM in assay [3].

As to `Cn1cc(-c2cc(-c3ccc(N4CCN(C(=O)C(C)(C)O)CC4)nc3)c3c(C#N)cnn3c2)cn1` [Example 31, 4-(6-(4-(2-hydroxy-2-methylpropanoyl)piperazin-1-yl)pyridin-3-yl)-6-(1-methyl-1H-pyrazol-4-yl)pyrazolo[1,5-a]pyridine-3-carbonitrile], the IC50 in assay [1] (10% FBS) came out at 2550 nM; in assay [2] (wild type RET, 1 mM ATP), 36.7 nM; in assay [3] (setting [4]) it was 76.1 nM.

With `COCC(C)NC(=O)C1(C)CCN(c2ccc(-c3cc(-c4cnn(C)c4)cn4ncc(C#N)c34)cn2)CC1` (stereo not drawn) [Example 252, 1-(5-(3-cyano-6-(1-methyl-1H-pyrazol-4-yl)pyrazolo[1,5-a]pyridin-4-yl)pyridin-2-yl)-N-(1-methoxypropan-2-yl)-4-methylpiperidine-4-carboxamide], the IC50 in assay [1] (10% FBS) was 656 nM; in assay [2] (wild type RET, 1 mM ATP), 11.6 nM; in assay [3] (setting [4]), 4.8 nM.

As to `Cn1cc(-c2cc(-c3ccc(N4CCC(O)CC4)nc3)c3c(C#N)cnn3c2)cn1` [Example 196, 4-(6-(4-hydroxypiperidin-1-yl)pyridin-3-yl)-6-(1-methyl-1H-pyrazol-4-yl)pyrazolo[1,5-a]pyridine-3-carbonitrile], the IC50 was determined as 630 nM in assay [1] (10% FBS); 10.9 nM in assay [2] (wild type RET, 1 mM ATP); 45.5 nM in assay [3] (setting [4]).

In the case of `Cn1cc(-c2cc(-c3ccc(N4CCC(NC(=O)OC(C)(C)C)CC4)nc3)c3c(C#N)cnn3c2)cn1` [Example 176, tert-butyl (1-(5-(3-cyano-6-(1-methyl-1H-pyrazol-4-yl)pyrazolo[1,5-a]pyridin-4-yl)pyridin-2-yl)piperidin-4-yl)carbamate], the IC50 in assay [1] (10% FBS) turned out to be 928 nM; in assay [2] (wild type RET, 1 mM ATP) it was 7.6 nM; in assay [3] (setting [4]) it was 15.3 nM.

On to `Cn1cc(-c2cc(-c3ccc(N4CCC(C(=O)NCC(F)(F)F)CC4)nc3)c3c(C#N)cnn3c2)cn1` [Example 243, 1-(5-(3-cyano-6-(1-methyl-1H-pyrazol-4-yl)pyrazolo[1,5-a]pyridin-4-yl)pyridin-2-yl)-N-(2,2,2-trifluoroethyl)piperidine-4-carboxamide], for which the IC50 in assay [1] (10% FBS) is 103 nM; in assay [2] (wild type RET, 1 mM ATP) it was 5.6 nM; in assay [3] (setting [4]), 5.4 nM.

For the molecule `CCONC(=O)C1CCN(c2ccc(-c3cc(-c4cnn(C)c4)cn4ncc(C#N)c34)cn2)CC1` [Example 237, 1-(5-(3-cyano-6-(1-methyl-1H-pyrazol-4-yl)pyrazolo[1,5-a]pyridin-4-yl)pyridin-2-yl)-N-ethoxypiperidine-4-carboxamide], the IC50 in assay [1] (10% FBS) was determined as 840 nM; in assay [2] (wild type RET, 1 mM ATP), 6.1 nM; in assay [3] (setting [4]) it was 15.8 nM.

Turning to `COC(CNC(=O)C1CCN(c2ccc(-c3cc(-c4cnn(C)c4)cn4ncc(C#N)c34)cn2)CC1)C(F)(F)F` (stereo not drawn) [Example 235, 1-(5-(3-cyano-6-(1-methyl-1H-pyrazol-4-yl)pyrazolo[1,5-a]pyridin-4-yl)pyridin-2-yl)-N-(3,3,3-trifluoro-2-methoxypropyl) piperidine-4-carboxamide], the IC50 in assay [1] (10% FBS) was found to be 1510 nM; in assay [2] (wild type RET, 1 mM ATP), 7.4 nM; in assay [3] (setting [4]), 5.1 nM.

Consider `CC(C)NC(=O)CC1CCN(c2ccc(-c3cc(-c4cnn(C)c4)cn4ncc(C#N)c34)cn2)CC1` [Example 249, 2-(1-(5-(3-cyano-6-(1-methyl-1H-pyrazol-4-yl)pyrazolo[1,5-a]pyridin-4-yl)pyridin-2-yl)piperidin-4-yl)-N-isopropylacetamide], for which the IC50 was determined as 998 nM in assay [1] (10% FBS); 26.6 nM in assay [2] (wild type RET, 1 mM ATP); 33.5 nM in assay [3] (setting [4]).
